Source: US6875748B2, “Compositions and methods for in vivo delivery of polynucleotide-based therapeutics” (Vical Incorporated, priority 2000, dated 2005)
“And” between values parts separate entries of the source, which are not always exact repeats. Identical values can stand only once. Like-named read-outs stand apart in the source and are kept apart here.

Key:
[1] = pH of the salt solutions; type: physicochemical
[2] = test system: mouse quadriceps muscle; assay: β-galactosidase-stained muscle fibers after i.m. injection of plasmid VR1412; type: in vivo; conditions: 50 μg VR1412, day 7, n=10
Experimental: For whole muscle staining, quadriceps were fixed for 3 hours at room temperature in 2% paraformaldehyde in PBS, washed 3 times for 20 min each in PBS and incubated for 18 hours at 37° C. in a solution containing 2 mM MgCl2, 5 mM potassium ferricferrocyanide and 1 mg/ml 5-bromo-4-chloro-3-indoyl-β-D-galactosidase (available from Life Technologies, Inc. (LTI), Gaithersberg, Md.) in PBS. After incubation, the muscles were washed 3 times for 10 min each in 3% dimethyl sulfoxide in PBS and stored in PBS at 4° C. until analysis. […] Sections were collected on 1% gelatin coated glass slides, brought to room temperature and stained for 2 hours at 37° C. in the same reagent as for whole mounts above except that the beta-galactosidase reagent concentration was 200 μg/ml. The sections were then counterstained with Harris hematoxylin in acetic acid, rinsed in tap water, dehydrated and mounted in Permount (Fisher, Fair Lawn, N.J.).
Individual muscle cells were examined for β-galactosidase expression as follows.
Whole quadriceps muscle groups were harvested on day 7. Muscles were snap frozen in OTC medium (n=10 muscles for each group). 10 micron cross-sections were stained with x-gal (substrate for β-gal). Fibers expressing β-gal (stained blue) were counted.

[3] = Osmolarity of the salt solutions; type: physicochemical; conditions: for Osm: 150 mM unless otherwise indicated
[4] = test system: mouse quadriceps muscle; assay: Luciferase expression in mouse quadriceps muscle 7 days after i.m. injection of plasmid VR1223 in salt solutions; type: in vivo; parameters: lux: unit: ng/muscle; conditions: for ng Lux per Muscle: 50 μg VR1223 in 50 μl of the solution; for ng Lux per Muscle / ng luciferase per muscle / ng Lux/Muscle / luciferase in muscle / Fold Saline: day 7; for ng luciferase per muscle / ng Lux/Muscle: 50 μg VR1223 in 50 μl; for luciferase in muscle: Example 4, run in parallel; for lux: 7-day luciferase expression, VR1223; for ng luciferase/muscle: average of all 9 experiments; for ng lux/muscle: reproducibility; for luciferase expression, fold over saline: VR1223, day 7
[5] = test system: mouse quadriceps muscle; assay: β-galactosidase expression in mouse quadriceps muscle after i.m. injection of plasmid VR1418; conditions: for β-galactosidase in muscle: 10 μg VR1418, day 7
Experimental: The luciferase content of the samples was calculated from Relative Light Units using a standard curve of purified firefly luciferase (Analytical Luminescence Laboratory, San Diego, Calif.; Cat. No. 2400), which was diluted in pooled extract from uninjected muscles to control for quenching. Luciferase values were expressed as ng luciferase per muscle. […] A standard curve, prepared in pooled extract from uninjected muscles, was included on each plate using the β-galactosidase enzyme standard included in the kit.
(§1) Muscle extracts were assayed for β-galactosidase and the serum was assayed for circulating levels of IFN-ω.
Quadriceps muscles were injected with 50 μl of each solution containing 10 μg of plasmid VR1418, and the muscles were tested for 7-day expression levels.

[6] = test system: mouse quadriceps muscle; assay: Serum human IFN-ω after i.m. injection of plasmid VR4151; type: in vivo; conditions: for serum IFN-ω levels: 50 μg VR4151, day 7
Experimental: as §1

[7] = test system: mouse lung; assay: Luciferase expression in mouse lung 3 days after intranasal instillation of VR1223 complexed with GAP-DLRIE/DOPE; type: in vivo; conditions: day 3; for luciferase expression in lung: 132 μg VR1223 + GAP-DLRIE/DOPE
[8] = test system: B16F10 tumor cells; assay: Anti-tumor effect of i.m. mIFN-α plasmid VR4111 in mice bearing subcutaneous B16F10 tumors; type: in vivo, mouse; conditions: for tumor volume: 27 days, VR4111; for survival versus blank DNA in saline: p<0.007, Kaplan-Meier
[9] = test system: β-galactosidase
[10] = test system: influenza nucleoprotein; conditions: 9 weeks post-vaccination, versus saline
[11] = test system: rectus femoris muscle; conditions: for cats with elevated hematocrit: no agent
Text: Two milliliters of DNA were delivered as 1-ml injections into each rectus femoris muscle. Following injection, cats were monitored at 7 day intervals for serum hematocrit levels, which correlate with the expression of erythropoeitin.

[12] = test system: mouse quadriceps muscle; assay: Hematocrit after i.m. injection of mouse erythropoietin plasmid (VR2901, VR2996); type: in vivo; conditions: 10 μg or 2.5 μg VR2901, four weeks
Experimental: Hematocrits were measured by centrifugation of blood obtained from the retro-orbital cavity of mice. Blood samples were collected in 75 μl heparinized capillary tubes and analyzed using HemaSTAT II microhematocrit centrifuge (Separation Technology, Inc., Altamonte Springs, Fla.).
The mice were monitored over time for serum hematocrit levels, which correlate with the expression of erythropoeitin.
The mice were monitored over four weeks for serum hematocrit levels, which correlate with the expression of erythropoeitin.
The mice were monitored at days 0, 7, 14, 21, and 28 for serum hematocrit levels, which correlate with the expression of erythropoeitin.
The mice were monitored at days 7, 14, and 28 for serum hematocrit levels, which correlate with the expression of erythropoeitin. Control serum levels were measured before any injections.

[13] = test system: mouse quadriceps muscle; assay: Luciferase expression in mouse quadriceps muscle after i.m. injection of plasmid VR1255 with auxiliary agents; conditions: day 7
[14] = test system: influenza nucleoprotein; conditions: 5 μg VR4700 days 0 and 21, 6 weeks
[15] = test system: tibialis anterior muscles of nude mice; assay: Serum SEAP after injection of plasmid VR3301 into tibialis anterior muscles of nude mice; type: in vivo, mouse
Experimental: Briefly, tissues were rapidly collected and frozen, they were combined with and frozen into a lysis buffer, the tissue was then pulverized with a drill bit run in reverse direction, the resulting powder was thawed, and was extracted two times with extraction buffer. Nude mice were injected with VR3301 DNA bilaterally on three consecutive days for a total of 300 μg DNA per mouse.
Sera from nude mice injected with VR3301 were collected at various times post-injection. […] Samples were assayed in duplicate. Plates were sealed, incubated at 65° C. for 30 min and spun for 5 min at 4000 rpm at room temperature. […] The samples were analyzed using a Molecular Devices Opti Max plate reader (Sunnyvale, Calif.). The plate reader was pre-warmed to 37° C. and a standard kinetic program was used to assay the samples at a wavelength of 405 nm for 30 min.
The mice were monitored over time for blood levels of SEAP or proinsulin or for hematocrits. In the case of SEAP, plasmid DNA was injected into the tibialis anterior muscles, and nude mice were used to prevent an immune response to the foreign transgene product.
The mice were monitored for blood levels of SEAP at day 7 post-injection. Plasmid DNA was injected into the tibialis anterior muscles, and nude mice were used to prevent an immune response to the foreign transgene product.

[16] = 150 mM unless otherwise indicated
[17] = salts at 150 mM, relative to saline
[18] = listed as 50 mM sodium phosphate
[19] = listed as 100 mM sodium phosphate
[20] = listed as 150 mM sodium phosphate

## [Cl-].[Na+] [Sodium Chloride, reference compound]
[1]
  pH: 5.5
[1]; [16]
  pH: 5.5
[2]
  β-galactosidase-positive myofiber cells: 108+/−21 myofiber cells/muscle section
[3]; listed as 100 mM NaCl
  Osm: 215 mmol/kg
[3]; listed as 150 mM NaCl (Saline)
  Osm: 310 mmol/kg
[3]; listed as saline
  osmolarity: 310 mmol/kg and 308 mmol/kg
[4]; listed as 100 mM Sodium Chloride
  ng Lux per Muscle: 112 ng per Muscle
[4]; listed as 150 mM Sodium Chloride (saline)
  ng Lux per Muscle: 119 ng per Muscle
[4]; listed as 100 mM NaCl
  ng luciferase per muscle: 112 ng luciferase per muscle
[4]; listed as saline
  ng luciferase per muscle: 119 ng luciferase per muscle and 89 ng luciferase per muscle
[4]; salts at 150 mM
  ng Lux/Muscle: 119 ng/Muscle
[4]
  luciferase in muscle: 159 ng/muscle
  ng luciferase/muscle: 120 ng luciferase/muscle
[4]; Table III-A
  lux: 119
[4]; Table III-A, listed as 100 mM NaCl
  lux: 112
[4]; Table III-A, listed as 150 mM NaCl (Saline)
  lux: 119
[4]; Table III-B, listed as 100 mM NaCl
  lux: 112
[4]; Table III-B, listed as 150 mM NaCl (Saline)
  lux: 119
[4]; luciferase expression relative to saline, listed as 100 mM Sodium Chloride
  Fold Saline: 0.9 Fold
[4]; luciferase expression relative to saline, listed as 150 mM Sodium Chloride (saline)
  Fold Saline: 1.0 Fold
[4]; Exp. #1
  ng lux/muscle: 49 ng lux/muscle
[4]; Exp. #9
  ng lux/muscle: 156 ng lux/muscle
[4]; [17]
  Fold Saline: 1.0 Fold
[5]
  β-galactosidase in muscle: 3.0 ng/muscle
[6]
  serum IFN-ω levels: 0.14 ng ml serum
[7]
  luciferase expression in lung: 0.14 ng lux/lung
[8]
  tumor volume: 2069 mm^3
  survival versus blank DNA in saline: statistically significant survival difference
[8]; to day 38, VR4111
  mice surviving: 2 out of 10

## O=P(O)(O)O [Sodium Phosphate]
[1]; [16]
  pH: 7.2
[1]; 150 mM unless otherwise indicated, listed as 50 mM Sodium Phosphate
  pH: 7.2
[1]; 150 mM unless otherwise indicated, listed as 100 mM Sodium Phosphate
  pH: 7.2
[1]; 150 mM unless otherwise indicated, listed as 150 mM Sodium Phosphate
  pH: 7.2
[2]
  β-galactosidase-positive myofiber cells: 186+/−43 myofiber cells/muscle section
[3]; listed as 50 mM Sodium Phosphate
  Osm: 83 mmol/kg
[3]; listed as 100 mM Sodium Phosphate
  Osm: 232 mmol/kg
[3]; listed as 150 mM Sodium Phosphate
  Osm: 308 mmol/kg
[3]; [18]
  osmolarity: 83 mmol/kg
[3]; [19]
  osmolarity: 270 mmol/kg
[3]; [20]
  osmolarity: 310 mmol/kg
[4]
  ng luciferase per muscle: 386 ng luciferase per muscle
  luciferase in muscle: 769 ng/muscle
  ng luciferase/muscle: 490 ng luciferase/muscle
[4]; salts at 150 mM
  ng Lux/Muscle: 481 ng/Muscle
[4]; 80 mM, 100 mM, 150 mM and 200 mM sodium phosphate, p<0.05
  luciferase expression compared with saline (words): significantly higher than saline
[4]; Example 4, day 7
  luciferase in muscle, fold over saline: 4.8 fold
[4]; Exp. #1 (highest)
  enhancement over saline: 7.3 fold
[4]; Exp. #9 (lowest)
  enhancement over saline: 2.5 fold
[4]; Table III-A
  lux: 481
[4]; Table III-A, listed as 50 mM Sodium Phosphate
  lux: 254
[4]; Table III-A, listed as 100 mM Sodium Phosphate
  lux: 270
[4]; Table III-A, listed as 150 mM Sodium Phosphate
  lux: 481
[4]; Table III-B, listed as 50 mM Sodium Phosphate
  lux: 254
[4]; Table III-B, listed as 100 mM Sodium Phosphate
  lux: 270
[4]; Table III-B, listed as 150 mM Sodium Phosphate
  lux: 481
[4]; [18]
  luciferase expression, fold over saline: 2.1 fold
[4]; [19]
  luciferase expression, fold over saline: 2.3 fold
[4]; [20]
  luciferase expression, fold over saline: 4.3 fold and 4 fold
[4]; all 9 experiments
  average enhancement over saline: 4.1 fold
[4]; Exp. #1
  ng lux/muscle: 362 ng lux/muscle
[4]; Exp. #9
  ng lux/muscle: 384 ng lux/muscle
[4]; [17]
  Fold Saline: 4.0 Fold
[4]; sodium phosphate below 40 mM or above 300 mM
  luciferase expression compared with saline (words): equal to or lower than those seen with saline
[5]
  β-galactosidase in muscle: 9.8 ng/muscle
[5]; 10 μg VR1418, day 7, data not shown
  optimal molar concentration for β-galactosidase expression: 150 mM
[5]; day 7
  β-galactosidase in muscle, fold over saline: 3.3 fold
[9]; 10 μg VR1412, four weeks
  mice with anti-β-galactosidase antibody: none of the mice
[9]; 10 μg VR1412, two weeks
  mice with anti-β-galactosidase antibody: none of the mice
[6]
  serum IFN-ω levels: 0.35 ng ml serum
[6]; day 7
  serum IFN-ω levels, fold over saline: 2.5 fold
[10]
  anti-NP specific CTL activity: statistically similar
[11]; group 3, 1 mg/ml DNA
  cats with elevated hematocrit: one cat
[11]; groups 1 and 2, 5 and 3 mg/ml DNA
  cats with elevated hematocrit: No cats
[12]
  hematocrit versus plasmid DNA in saline: higher hematocrit levels
[13]; 50 μg VR1255 in 50 μl 150 mM sodium phosphate with added agents
  Average μg luciferase muscle: 0.37 µg
[7]; listed as 2.5 mM sodium phosphate
  luciferase expression in lung: 5.2 ng lux/lung
[7]; [20]
  luciferase expression in lung: 0.22 ng lux/lung
[7]
  luciferase expression in lung compared with water: enhanced compared with water, but not as much as with 2.5 mM sodium phosphate
  luciferase expression in lung, fold compared with water: 5.5 fold
[14]
  serum anti-NP antibody titers: enhanced serum anti-NP antibody titers compared with saline solution
[8]
  tumor volume: 955 mm^3
  survival versus blank DNA in saline: statistically significant survival difference
[8]; VR4111 100 μg i.m., up to 22 days
  tumor growth versus blank DNA controls: lower rate of tumor growth
[8]; to day 41, VR4111
  mice surviving: 4 out of 10

## octyl phenol ethylene oxide condensate with about 9-10 ethylene oxide units [Triton X-100]
[9]; 10 μg VR1412, four weeks
  mice with anti-β-galactosidase antibody: three of the five
[9]; 10 μg VR1412, ten weeks
  mice with anti-β-galactosidase antibody: four of the five
[11]; group 4
  period of elevated hematocrit: > 40 days
[13]; 0.01% agent in saline versus saline alone
  increase of luciferase expression in 154 mM sodium chloride: six-fold
[15]; day 7
  SEAP expression with 100 μg DNA plus agent versus 300 μg DNA in 150 mM sodium phosphate alone: nearly equivalent
  SEAP expression, fold compared with sodium phosphate alone: 1.7 fold
[15]; day 35
  SEAP expression, fold compared with 150 mM sodium phosphate alone: 2 fold
